# Columns and labels:
# MMP13 = MMP13 (Homo sapiens, UniProt P45452); experiment: MMP13 inhibition (Table 1); assay type: biochemical; settings: read-out: percentage inhibition MMP13
# [1] = test system: IL-2-induced peritoneal recruitment of lymphocytes; experiment: IL-2-induced peritoneal recruitment of lymphocytes; assay type: in vivo, C3H/HEN mice; settings: Mus musculus, Lymphocyte, po; 3 mg/kg p.o., 15 min prior to IL-2; mice; 24 h after IL-2
# Experimental: Administration of IL-2 intraperitoneally causes migration of lymphocytes into the intraperitoneal cavity. This is a model for the cellular migration that occurs during inflammation.
# C3H/HEN mice (Elevage Janvier, France) were intraperitoneally injected with IL-2 (Serono Pharmaceutical Research Institute, 20 μg/kg, in saline). Compounds of the invention were suspended in 0.5% carboxymethylcellulose (CMC)/0.25% tween-20 and were administered by s.c. or p.o. route (10 ml/kg) 15 min prior to administration of IL-2.
# Twenty-four hours after administration of IL-2, peritoneal white blood cells were collected by 3 successive lavages of the peritoneal cavity with 5 ml phosphate buffered saline (PBS)-1 mM EDTA (+4° C.). The suspension was centrifuged (1700 g×10 min at +4° C.). The resulting pellet was suspended in 1 ml PBS-1 mM EDTA.
# Lymphocytes were identified and counted using a Beckman/Coulter counter.
# The animals were divided into 6 groups (6 mice each group):
# Group 1: (baseline) received 0.5% CMC/0.25% tween-20 (vehicle of compound of the invention) and saline (vehicle of IL-2);
# Group 2: (control IL-2) received 0.5% CMC/0.25% tween-20 and injection of IL-2;
# Group 3: Experimental group (Compound of the invention Dose 1) received a compound of the invention and injection of IL-2;
# Group 4: Experimental group (Compound of the invention Dose 2) received a compound of the invention and injection of IL-2;
# Group 5: Experimental group (Compound of the invention Dose 3) received a compound of the invention and injection of IL-2;
# Group 6: Reference group received reference compound dexamethasone and injection of IL-2.
# Inhibition of lymphocyte recruitment was calculated as follows:
# Where Ly 1=Number of lymphocytes in group 1 (E3/μl), Ly 2=Number of lymphocytes in group 2 (E3/μl), Ly X=Number of lymphocytes in group X (3-5) (E3/μl).
inhibition at 0.1 µM (MMP13) [%],inhibition at 5 µM (MMP13) [%],SMILES,inhibition in vivo at 3 mg/kg [1] [%]
11,94,"O=CN(O)C(CCc1ccccc1)CS(=O)(=O)N1Cc2ccccc2C1 (stereo not drawn) [Example 6, N-{1-[(1,3-dihydro-2H-isoindol-2-ylsulfonyl)methyl]-3-phenylpropyl}-N-hydroxyformamide]",40 ± 6
5,68,"COc1cc2c(cc1OC)CN(S(=O)(=O)CC([C@H]1COC(C)(C)O1)N(O)C=O)CC2 (stereo partly drawn) [Example 14, N-{2-[(6,7-dimethoxy-3,4-dihydroisoquinolin-2(1H)-yl)sulfonyl]-1-[(4S)-2,2-dimethyl-1,3-dioxolan-4-yl]ethyl}-N-hydroxyformamide]",50 ± 10

# Source: patent US7879876B2, “Sulfonamide derivatives and use thereof for the modulation of metalloproteinases” (Merck Serono SA, priority 2005, dated 2011)
